Measured values: US20190175577A1, “METHOD FOR TREATING AMYOTROPHIC LATERAL SCLEROSIS” (UNIVERSITY OF MIAMI, priority 2017, published 2019)

Experiments:
[1] = test system: ALS caused by SOD1 mutations; experiment: randomized, double-blind placebo controlled phase II trial: efficacy (survival, ALSFRS-R, CAFS); type: in vivo, human; settings: for participants alive (and without PAV or tracheostomy): at 12 months
Method: (§1) Provided herein are the details of a completed, randomized, double-blind placebo controlled phase II trial. The trial was conducted at two sites and three academic medical centers in the United States. An independent medical monitor completed regular review of laboratory reports and adverse events (AEs), as well as real-time review of serious adverse events (SAEs). Eligibility criteria (FIG. 1) aimed to enroll, from across the U.S. and Canada, a population relatively early in the course of ALS caused by SOD1 mutations associated with rapidly progressive disease.
(§2) Randomization (1:1 to Arimoclomol or matching placebo) was stratified by Riluzole use and in block size of two within each stratum, and implemented using a central web-based electronic data capture (EDC) system managed by the Neurological Clinical Research Institute Data Management Center at MGH. The randomization schedule, generated by a study statistician, was provided to each research pharmacy. At randomization, the EDC assigned a subject identification number, which the site-coordinator submitted to the research pharmacy for drug dispensing. Encapsulated placebo was matched in color and appearance to active drug. Except for the research pharmacists, pharmacy monitors, and study statisticians, all other personnel and study participants were blinded to treatment assignments.
The first participants were randomized and administered 100 mg of Arimoclomol three times daily. After enrollment of the first 16 participants (of whom 8 were on Arimoclomol, including 1 subject subsequently excluded per protocol), the dosage was increased to 200 mg administered three times daily for all active participants (which for the Arimoclomol group included three subjects initially started at 100 mg administered three times daily), and all newly enrolled participants received 200 mg three times a day. All data were analyzed following the intent-to-treat principle.
Assessments were performed in person only at Baseline and Month-2, with remote assessments planned for all other visits. Neurological examination, motor unit number estimation (MUNE), and slow vital capacity (SVC) could only be performed in person. Other assessments, conducted at all visits (in person and remotely), included: vital signs; blood and urine for safety labs; ALSFRS-R (revised ALS Functional Rating Scale), which has been validated for telephone administration; and the forced expiratory volume in 6-seconds (FEV6). Miano et al., Amyotrophic Lateral Sclerosis And Other Motor Neuron Disorders: Official Publication Of The World Federation Of Neurology, Research Group On Motor Neuron Diseases 2004; 5:235-239; Vandevoorde et al., Chest 2005; 127:1560-1564. In addition, AEs, concomitant medications, study drug dose management, use of ventilatory support, and key study events were recorded at all visits.
Operationalization of remote assessments posed logistical challenges that required the introduction of two innovative features: (1) the collection of vital signs and blood/urine for safety labs in participants' homes, this was accomplished using the services of a mobile medical provider; and (2) the use of FEV6 as the principal measure of respiratory function. The key advantage of FEV6 over SVC is that FEV6 may be self-administered by the participant using a low-cost portable device (e.g., Piko-6, nSpireHealth, Inc.). […] Use of the FEV6 allowed for remote assessment of respiratory function, which otherwise would not have been available for collection in this trial. Reproducibility and normative data for FEV6 are established. Hankinson et al., Chest 2003; 124:1805-1811.
For efficacy, the principal outcome measure was PAV- and tracheostomy-free survival time, calculated from baseline to PAV (defined as first of seven consecutive days when PAV was used >22 hours/day) or tracheostomy, date of death (if no PAV or tracheostomy), or date of last available follow-up/study contact (if still PAV- and tracheostomy-free by then). […]

[2] = test system: ALS caused by SOD1 mutations; parameters: species or system human; settings: in vivo
Method: as §1
as §2, with “Encapsulated placebo was matched in color and appearance to active drug. Except for the research pharmacists, pharmacy monitors, and study statisticians, all other personnel and study participants were blinded to treatment assignments.” left out
The first participants were randomized and administered 100 mg of Arimoclomol three times daily. […] All data were analyzed following the intent-to-treat principle.
Assessments were performed in person only at Baseline and Month-2, with remote assessments planned for all other visits. […] In addition, AEs, concomitant medications, study drug dose management, use of ventilatory support, and key study events were recorded at all visits.
The primary endpoint of safety and tolerability was based on the frequency of AEs, abnormal vital signs, and abnormal laboratory studies above or below pre-defined alert levels. […] In summarizing AEs: (a) if a participant experienced multiple occurrences of the same event, only the occurrence with the worst severity (or highest degree of relatedness to study drug) was counted; and (b) CTCAE events were further classified into subgroups (“AE type”), e.g., pneumonia and bronchitis were both classified as upper/lower respiratory infection.

In the case of [O-][n+]1cccc(/C(Cl)=N/OC[C@H](O)CN2CCCCC2)c1 [Arimoclomol], the “CAFS potential treatment benefit vs placebo” value ([1]; 95% CI: −2.50 to 11.64) is reported as 4.57 points, the “ALSFRS-R rate of decline, average (±SE)” value ([1]; A4V subgroup) is reported as 2.6±0.5 points/month and the “treatment difference in ALSFRS-R rate of decline vs placebo” value ([1]; A4V subgroup, 95% CI: −0.28 to 2.24, p=0.12) is reported as 0.98 points/month. The “win ratio, participant-to-participant comparison between the two groups” value ([1]; CAFS) was 1.6924, the “unadjusted hazard ratio (HR), PAV- and tracheostomy-free survival” value ([1]; Cox proportional hazards model, Arimoclomol compared to control, 95% CI: 0.29-1.48, p=0.33) was 0.67 and the “hazard ratio (HR) adjusted for baseline ALSFRS-R and Riluzole” value ([1]; Cox proportional hazards model, 95% CI: 0.32-1.80, p=0.55) was 0.77. For the same molecule, the “treatment difference in ALSFRS-R rate of decline, Vonesh model” value ([1]; Vonesh shared parameter model, 95% CI: −0.33 to 1.86, p=0.16) was 0.77±0.54 points/month, the “treatment difference in ALSFRS-R rate of decline vs placebo” value ([1]; all participants, 95% CI: −0.63 to 1.63, p=0.37) was 0.5 points/month and the “ALSFRS-R rate of decline, average (±SE)” value ([1]; all participants, mixed model) was 2.5±0.4 points/month. For the same molecule, the “participants alive (and without PAV or tracheostomy)” value ([1]; all participants, Kaplan-Meier) was 34%, the “participants alive (and without PAV or tracheostomy)” value ([1]; subgroup of A4V participants) was 29% and the “direct effect of treatment on survival, Vonesh model” value ([1]; p=0.62) was “not significant”. The “CAFS rank score, average (±SE)” value ([1]; rank scores range from 1 (worst) to 36 (best)) was 20.9±2.5, the “ALSFRS-R difference over a one-year period” value ([1]; translated from treatment difference of 0.5-1.0 points/month, not statistically significant) was 6-12 points and the “discontinuation because of adverse event” value [2] was “A single participant stopped Arimoclomol because of a skin rash”. The “relatedness of SAEs to study drug” value [2] was “none of which were considered related to study drug” and the “serious adverse events (SAEs) reported” value [2] was 7.
